Drawing on US20260224536A1, “ARYL HETEROCYCLIC KV1.3 INHIBITOR, PREPARATION METHOD THEREFOR, AND USE THEREOF” (SHANGHAI SHENSHI WISE TECHNOLOGY CO., LTD., priority 2022, published 2026), this text covers IC50 for 27 compounds.

The structures appear in SMILES notation.

In the assay the target is Kv1.3 potassium channel (Homo sapiens, UniProt P22001). The experiment in a line: Whole-cell patch-clamp assay for inhibitory activity against Kv1.3 (peak current). Conditions: HEK293 cells stably expressing Kv1.3, patch-clamp. The class given is cell-based. Summed up:
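Whole-cell currents evoked by a step from −80 mV holding to +40 mV for 500 ms at room temperature. Concentrations perfused cumulatively, low to high, each for 5 min or until steady state. Peak current normalised to each cell's compound-free control; IC50 from nonlinear fit, ≥3 cells per concentration.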

Kv1.3 potassium channel, sequence (P22001 whole entry, the tested form may be a part): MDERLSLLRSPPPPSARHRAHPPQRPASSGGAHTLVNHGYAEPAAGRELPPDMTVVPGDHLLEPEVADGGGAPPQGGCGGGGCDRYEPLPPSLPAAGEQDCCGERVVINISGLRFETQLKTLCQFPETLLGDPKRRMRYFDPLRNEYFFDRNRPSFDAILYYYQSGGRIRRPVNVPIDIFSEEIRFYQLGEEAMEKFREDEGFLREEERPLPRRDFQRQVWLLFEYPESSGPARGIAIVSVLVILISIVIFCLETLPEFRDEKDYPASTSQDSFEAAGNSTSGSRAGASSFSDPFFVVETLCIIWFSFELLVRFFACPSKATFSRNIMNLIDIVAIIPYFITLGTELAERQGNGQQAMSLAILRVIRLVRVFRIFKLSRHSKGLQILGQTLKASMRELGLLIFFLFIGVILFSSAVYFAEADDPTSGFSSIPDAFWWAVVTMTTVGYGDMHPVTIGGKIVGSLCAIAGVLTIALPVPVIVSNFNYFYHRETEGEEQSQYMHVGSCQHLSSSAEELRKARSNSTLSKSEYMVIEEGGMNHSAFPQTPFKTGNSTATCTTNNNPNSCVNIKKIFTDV

The IC50 is the concentration at which inhibition is half-maximal. A high value points to weaker potency. Regarding `OCc1nnc2n1C[C@@H](c1c(O)ccc(Cl)c1Cl)C2` [Example 1, (R)-3,4-Dichloro-2-(3-(hydroxymethyl)-6,7-dihydro-5H-pyrrolo[2,1-c][1,2,4]triazol-6-yl)phenol], the IC50 amounted to 94.3 nM.

In turn, `CC(C)(C)c1nnc2n1CC(c1c(O)ccc(Cl)c1Cl)C2` (stereo not drawn) [Example 16, 2-(3-(tert-Butyl)-6,7-dihydro-5H-pyrrolo[2,1-c][1,2,4]triazol-6-yl)-3,4-dichlorophenol] returned an IC50 of 74.7 nM.

The compound `Oc1ccc(Cl)c(Cl)c1[C@@H]1Cc2nnc([C@@H]3CCN(C4CCOCC4)C3)n2C1` [Example 83, 3,4-Dichloro-2-((S)-3-((R)-1-(tetrahydro-2H-pyran-4-yl)pyrrolidin-3-yl)-6,7-dihydro-5H-pyrrolo[2,1-c][1,2,4]triazol-6-yl)phenol] yielded an IC50 of 3.99 nM.

Compound `O=c1n([C@H]2CCOC2)nc2n1C[C@H](c1c(O)ccc(Cl)c1Cl)C2` [Example 109, (S)-6-(2,3-Dichloro-6-hydroxyphenyl)-2-((S)-tetrahydrofuran-3-yl)-2,5,6,7-tetrahydro-3H-pyrrolo[2,1-c][1,2,4]triazol-3-one] displayed an IC50 of 31.7 nM.

Compound `CCc1nn(C)c2c1C[C@H](c1c(O)ccc(Cl)c1Cl)C2` [Example 115, (S)-3,4-Dichloro-2-(3-ethyl-1-methyl-1,4,5,6-tetrahydrocyclopenta[c]pyrazol-5-yl)phenol] had an IC50 of 58.8 nM.

`CC(C)(C)n1cc(-c2cnc3n2CC(c2c(O)ccc(Cl)c2Cl)C3)cn1` (stereo not drawn) [Example 98, 2-(3-(1-(tert-Butyl)-1H-pyrazol-4-yl)-6,7-dihydro-5H-pyrrolo[1,2-a]imidazol-6-yl)-3,4-dichlorophenol]: the IC50 came out at 25.5 nM.

As for `CCn1ncc2c1C[C@@H](c1c(O)ccc(Cl)c1Cl)C2` [Example 117, (S)-3,4-dichloro-2-(1-ethyl-1,4,5,6-tetrahydrocyclopenta[c]pyrazol-5-yl)phenol], the IC50 was 65 nM.

On to `CCc1nnc2n1C[C@H](c1c(O)ccc(Cl)c1Cl)C2` [Example 34, (S)-3,4-Dichloro-2-(3-ethyl-6,7-dihydro-5H-pyrrolo[2,1-c][1,2,4]triazol-6-yl)phenol], for which the IC50 worked out at 9.75 nM.

In turn, `Oc1ccc(Cl)c(Cl)c1[C@@H]1Cc2nnc([C@]34COCC3C4)n2C1` (stereo partly drawn) [Example 73, 2-((6S)-3-((1R)-3-oxabicyclo[3.1.0]hexan-1-yl)-6,7-dihydro-5H-pyrrolo[2,1-c][1,2,4]triazol-6-yl)-3,4-dichlorophenol] gave an IC50 of 24.7 nM.

`Oc1ccc(Cl)c(Cl)c1[C@@H]1Cc2nnc(C3CCCC3)n2C1` [Example 67, (S)-3,4-Dichloro-2-(3-cyclopentyl-6,7-dihydro-5H-pyrrolo[2,1-c][1,2,4]triazol-6-yl)phenol]: the IC50 was determined as 10.2 nM.

In the case of `O=c1n(CC(F)F)nc2n1C[C@H](c1c(O)ccc(Cl)c1Cl)C2` [Example 107, (S)-6-(2,3-Dichloro-6-hydroxyphenyl)-2-(2,2-difluoroethyl)-2,5,6,7-tetrahydro-3H-pyrrolo[2,1-c][1,2,4]triazol-3-one], the IC50 was 31 nM.

Regarding `Oc1ccc(Cl)c(Cl)c1[C@@H]1Cc2ncc(C3CCCC3)n2C1` [Example 90, (S)-3,4-Dichloro-2-(3-cyclopentyl-6,7-dihydro-5H-pyrrolo[1,2-a]imidazol-6-yl)phenol], the IC50 was found to be 7.08 nM.

Take `Cn1cc(-c2nnc3n2C[C@H](c2c(O)ccc(Cl)c2Cl)C3)cn1` [Example 40, (S)-3,4-Dichloro-2-(3-(1-methyl-1H-pyrazol-4-yl)-6,7-dihydro-5H-pyrrolo[2,1-c][1,2,4]triazol-6-yl)phenol]: 10.6 nM corresponded to half-maximal inhibition (IC50).

With `Oc1ccc(Cl)c(Cl)c1C1Cc2nnc(C3CCCCC3)n2C1` (stereo not drawn) [Example 5, 3,4-Dichloro-2-(3-cyclohexyl-6,7-dihydro-5H-pyrrolo[2,1-c][1,2,4]triazol-6-yl)phenol], the IC50 was determined as 39 nM.

On to `Oc1ccc(Cl)c(Cl)c1[C@@H]1Cc2nnc(C(F)(F)F)n2C1` [Example 86, (S)-3,4-Dichloro-2-(3-(trifluoromethyl)-6,7-dihydro-5H-pyrrolo[2,1-c][1,2,4]triazol-6-yl)phenol], for which the IC50 stood at 25 nM.

Regarding `CC(C)N1CCN(c2cnc3n2CC(c2c(O)ccc(Cl)c2Cl)C3)CC1` (stereo not drawn) [Example 100, 3,4-Dichloro-2-(3-(4-isopropylpiperazin-1-yl)-6,7-dihydro-5H-pyrrolo[1,2-a]imidazol-6-yl)phenol], it took 9.89 nM to reach half-maximal inhibition (IC50).

`Nc1ccc(-c2nnc3n2C[C@H](c2c(O)ccc(Cl)c2Cl)C3)cn1` [Example 42, (S)-2-(3-(6-Aminopyridin-3-yl)-6,7-dihydro-5H-pyrrolo[2,1-c][1,2,4]triazol-6-yl)-3,4-dichlorophenol] yielded an IC50 of 13 nM.

For the compound `Oc1ccc(Cl)c(Cl)c1[C@@H]1Cc2nnc(-c3cccc4[nH]ncc34)n2C1` [Example 41, (S)-2-(3-(1H-Indazol-4-yl)-6,7-dihydro-5H-pyrrolo[2,1-c][1,2,4]triazol-6-yl)-3,4-dichlorophenol], the IC50 stood at 23.8 nM.

As to `CC(F)(F)c1nnc2n1C[C@H](c1c(O)ccc(Cl)c1Cl)C2` [Example 85, (S)-3,4-Dichloro-2-(3-(1,1-difluoroethyl)-6,7-dihydro-5H-pyrrolo[2,1-c][1,2,4]triazol-6-yl)phenol], the IC50 stood at 24.5 nM.

Compound `O=C(c1nnc2n1CC(c1c(O)ccc(Cl)c1Cl)C2)N1CCC(O)C1` (stereo not drawn) [Example 12, (6-(2,3-Dichloro-6-hydroxyphenyl)-6,7-dihydro-5H-pyrrolo[2,1-c][1,2,4]triazol-3-yl)(3-hydroxypyrrolidin-1-yl)methanone] gave an IC50 of 30.9 nM.

`Oc1ccc(Cl)c(Cl)c1[C@@H]1Cc2nnc([C@@H]3CCCNC3)n2C1` [Example 59, 3,4-dichloro-2-((S)-3-((R)-piperidin-3-yl)-6,7-dihydro-5H-pyrrolo[2,1-c][1,2,4]triazol-6-yl)phenol] returned an IC50 of 2.56 nM.

Turning to `Oc1ccc(Cl)c(Cl)c1[C@@H]1Cc2nnc(C3CCCNC3)n2C1` (single isomer, unassigned) [Example 58], half-maximal inhibition (IC50) was put at 12 nM.

`O=c1n(C2CCOCC2)nc2n1C[C@H](c1c(O)ccc(Cl)c1Cl)C2` [Example 108, (S)-6-(2,3-Dichloro-6-hydroxyphenyl)-2-(tetrahydro-2H-pyran-4-yl)-2,5,6,7-tetrahydro-3H-pyrrolo[2,1-c][1,2,4]triazol-3-one] had an IC50 of 27.8 nM.

For `CC(C)N1CCC(Oc2nnc3n2CC(c2c(O)ccc(Cl)c2Cl)C3)CC1` (stereo not drawn) [Example 102, 3,4-dichloro-2-(3-((1-isopropylpiperidin-4-yl)oxy)-6,7-dihydro-5H-pyrrolo[2,1-c][1,2,4]triazol-6-yl)phenol], the midpoint of inhibition, the IC50, lay at 6.99 nM.

With `Oc1ccc(Cl)c(Cl)c1C1Cc2nnc(C3CCN(C4CC4)CC3)n2C1` (stereo not drawn) [Example 11, 3,4-Dichloro-2-(3-(1-cyclopropylpiperidin-4-yl)-6,7-dihydro-5H-pyrrolo[2,1-c][1,2,4]triazol-6-yl)phenol], the IC50 is 9.24 nM.

`Oc1ccc(Cl)c(Cl)c1[C@@H]1Cc2nnc(-c3ccnc(C(F)(F)F)c3)n2C1` [Example 111, (S)-3,4-Dichloro-2-(3-(2-(trifluoromethyl)pyridin-4-yl)-6,7-dihydro-5H-pyrrolo[2,1-c][1,2,4]triazol-6-yl)phenol] returned an IC50 of 14.4 nM.

The compound `CCc1cnc2n1C[C@H](c1c(O)ccc(Cl)c1Cl)C2` [Example 92, (S)-3,4-Dichloro-2-(3-ethyl-6,7-dihydro-5H-pyrrolo[1,2-a]imidazol-6-yl)phenol] gave an IC50 of 5.51 nM.
